Measured values taken from ChEMBL document CHEMBL1156241, “Synthesis of a biologically active isomer of kotalanol, a naturally occurring glucosidase inhibitor” (Bioorg Med Chem, 2010).

These compounds were tested against Maltase-glucoamylase (Homo sapiens, UniProt O43451) (assay: Inhibition of recombinant human maltase glucoamylase N-terminal catalytic domain).
Sequence of Maltase-glucoamylase (O43451 whole entry, the tested form may be a part): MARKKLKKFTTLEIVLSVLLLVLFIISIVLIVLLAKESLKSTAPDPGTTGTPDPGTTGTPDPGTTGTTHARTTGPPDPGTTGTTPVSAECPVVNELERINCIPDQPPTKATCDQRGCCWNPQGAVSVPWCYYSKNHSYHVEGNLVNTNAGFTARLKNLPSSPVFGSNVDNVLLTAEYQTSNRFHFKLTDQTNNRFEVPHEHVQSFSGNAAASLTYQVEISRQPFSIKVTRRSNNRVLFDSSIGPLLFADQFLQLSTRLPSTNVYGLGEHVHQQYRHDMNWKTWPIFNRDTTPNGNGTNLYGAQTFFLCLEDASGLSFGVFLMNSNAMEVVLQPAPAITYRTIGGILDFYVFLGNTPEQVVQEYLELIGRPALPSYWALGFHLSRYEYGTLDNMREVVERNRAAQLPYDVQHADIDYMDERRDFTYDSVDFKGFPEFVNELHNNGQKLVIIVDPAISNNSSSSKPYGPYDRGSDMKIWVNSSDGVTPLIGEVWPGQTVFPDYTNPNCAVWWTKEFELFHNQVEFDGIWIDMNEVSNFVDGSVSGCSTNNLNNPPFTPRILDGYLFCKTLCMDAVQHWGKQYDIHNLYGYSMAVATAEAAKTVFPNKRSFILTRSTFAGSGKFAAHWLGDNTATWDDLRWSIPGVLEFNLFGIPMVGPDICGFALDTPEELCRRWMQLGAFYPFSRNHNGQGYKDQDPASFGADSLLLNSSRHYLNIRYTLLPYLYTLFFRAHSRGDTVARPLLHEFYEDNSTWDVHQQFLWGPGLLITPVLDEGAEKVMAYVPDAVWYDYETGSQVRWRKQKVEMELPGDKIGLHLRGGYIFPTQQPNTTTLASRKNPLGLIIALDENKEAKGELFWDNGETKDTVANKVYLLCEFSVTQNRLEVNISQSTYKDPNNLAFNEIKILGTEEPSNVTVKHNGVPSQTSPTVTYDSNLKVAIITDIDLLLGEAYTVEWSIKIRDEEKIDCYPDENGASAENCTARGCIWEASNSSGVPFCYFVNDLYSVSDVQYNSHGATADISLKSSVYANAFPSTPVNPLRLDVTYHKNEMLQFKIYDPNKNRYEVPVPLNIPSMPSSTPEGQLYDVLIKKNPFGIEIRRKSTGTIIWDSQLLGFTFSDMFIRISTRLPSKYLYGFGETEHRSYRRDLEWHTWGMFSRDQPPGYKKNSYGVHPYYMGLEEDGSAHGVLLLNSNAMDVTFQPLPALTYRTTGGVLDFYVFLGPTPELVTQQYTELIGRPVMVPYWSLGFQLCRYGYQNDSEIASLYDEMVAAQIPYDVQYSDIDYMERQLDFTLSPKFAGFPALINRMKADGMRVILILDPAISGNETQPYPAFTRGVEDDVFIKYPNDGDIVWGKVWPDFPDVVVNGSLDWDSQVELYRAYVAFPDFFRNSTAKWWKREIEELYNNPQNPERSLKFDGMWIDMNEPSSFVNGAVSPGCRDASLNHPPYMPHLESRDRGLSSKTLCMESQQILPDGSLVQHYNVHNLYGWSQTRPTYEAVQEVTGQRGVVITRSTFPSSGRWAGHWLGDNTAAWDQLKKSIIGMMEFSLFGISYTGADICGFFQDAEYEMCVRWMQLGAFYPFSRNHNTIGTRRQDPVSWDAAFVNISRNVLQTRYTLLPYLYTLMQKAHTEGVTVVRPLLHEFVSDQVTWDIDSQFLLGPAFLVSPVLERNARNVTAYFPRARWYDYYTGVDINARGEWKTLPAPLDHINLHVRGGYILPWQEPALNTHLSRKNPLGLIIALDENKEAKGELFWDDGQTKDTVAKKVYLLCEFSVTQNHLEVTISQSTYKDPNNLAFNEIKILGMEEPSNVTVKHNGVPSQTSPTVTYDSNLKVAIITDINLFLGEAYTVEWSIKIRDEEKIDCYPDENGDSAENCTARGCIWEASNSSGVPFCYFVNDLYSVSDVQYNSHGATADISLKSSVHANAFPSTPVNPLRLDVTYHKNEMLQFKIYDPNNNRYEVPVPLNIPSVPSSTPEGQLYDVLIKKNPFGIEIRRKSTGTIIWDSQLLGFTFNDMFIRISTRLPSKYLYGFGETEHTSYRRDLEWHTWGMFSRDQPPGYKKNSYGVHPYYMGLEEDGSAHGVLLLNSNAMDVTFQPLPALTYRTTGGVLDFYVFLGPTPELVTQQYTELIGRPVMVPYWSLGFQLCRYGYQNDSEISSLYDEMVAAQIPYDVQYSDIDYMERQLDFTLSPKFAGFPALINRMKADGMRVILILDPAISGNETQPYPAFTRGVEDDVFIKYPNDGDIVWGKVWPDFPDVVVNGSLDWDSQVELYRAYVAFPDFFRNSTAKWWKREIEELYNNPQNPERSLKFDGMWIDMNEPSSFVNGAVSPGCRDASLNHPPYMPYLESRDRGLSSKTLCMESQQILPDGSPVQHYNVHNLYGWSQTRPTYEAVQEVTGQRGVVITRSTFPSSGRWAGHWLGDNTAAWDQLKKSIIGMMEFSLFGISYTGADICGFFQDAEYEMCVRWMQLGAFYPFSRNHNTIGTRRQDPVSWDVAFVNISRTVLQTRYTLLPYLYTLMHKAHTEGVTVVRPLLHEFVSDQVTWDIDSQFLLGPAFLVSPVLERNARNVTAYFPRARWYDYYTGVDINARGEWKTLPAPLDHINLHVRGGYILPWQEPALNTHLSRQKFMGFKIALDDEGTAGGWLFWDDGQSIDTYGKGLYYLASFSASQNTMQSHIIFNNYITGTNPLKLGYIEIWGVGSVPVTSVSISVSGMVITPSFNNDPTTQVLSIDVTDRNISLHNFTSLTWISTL
`O=S(=O)([O-])O[C@@H]([C@H](O)[C@@H](O)[C@@H](O)CO)[C@H](O)C[S+]1C[C@@H](O)[C@H](O)[C@H]1CO` (some centres undefined) was tested, and the Ki was 100 nM.
`O=S(=O)([O-])O[C@@H]([C@H](O)[C@@H](O)[C@H](O)CO)[C@H](O)C[S+]1C[C@@H](O)[C@H](O)[C@H]1CO` (some centres undefined) showed a Ki of 130 nM.
`O=S(=O)([O-])O[C@@H]([C@H](O)[C@H](O)[C@H](O)CO)[C@H](O)C[S+]1C[C@@H](O)[C@H](O)[C@H]1CO` (some centres undefined) gave a Ki of 200 nM.
`O=S(=O)([O-])O[C@@H]([C@H](O)[C@H](O)[C@@H](O)CO)[C@H](O)C[S+]1C[C@@H](O)[C@H](O)[C@H]1CO` (some centres undefined) [KOTALANOL] gave a Ki of 190 nM.
